Legend:
Assay in all cases: NCI SRB growth inhibition (single dose 10 µM / five-dose)
Assay type in all cases: cell-based, human
OVCAR-5 = details: Homo sapiens; for inhibition at 10 µM: OVCAR-5 (Ovarian cancer), read-out: GI%; for GI50: OVCAR-5, Ovarian cancer, five-dose
Procedure, shortened: (§1)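 Cytotoxicity in the NCI panel of sixty human tumour lines was measured by sulforhodamine B protein staining. Each agent was tested in DMSO-derived dilutions at five concentrations, and TGI was read where treated absorbance equalled time-zero absorbance.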

HOP-62 = details: Homo sapiens; for inhibition at 10 µM: HOP-62 (Non-small cell lung cancer), read-out: GI%; for GI50: HOP-62, Non-small cell lung cancer, five-dose
Procedure, shortened: as §1

HCC-2998 = details: Homo sapiens; for inhibition at 10 µM: HCC-2998 (Colon cancer), read-out: GI%; for GI50: HCC-2998, Colon cancer, five-dose
Procedure, shortened: as §1

PC-3 = details: Homo sapiens; PC-3 (Prostate cancer), 10 µM; read-out: GI%
Procedure, shortened: as §1

NCI-H522 = details: Homo sapiens; for inhibition at 10 µM: NCI-H522 (Non-small cell lung cancer), read-out: GI%; for GI50: NCI-H522, Non-small cell lung cancer, five-dose
Procedure, shortened: as §1

MOLT-4 = details: Homo sapiens; for inhibition at 10 µM: MOLT-4 (Leukemia), read-out: GI%; for GI50: MOLT-4, Leukemia, five-dose
Procedure, shortened: as §1

TK-10 = details: Homo sapiens; for inhibition at 10 µM: TK-10 (Renal cancer), read-out: GI%; for GI50: TK-10, Renal cancer, five-dose
Procedure, shortened: as §1

SNB-19 = details: Homo sapiens; for inhibition at 10 µM: SNB-19 (CNS cancer), read-out: GI%; for GI50: SNB-19, CNS cancer, five-dose
Procedure, shortened: as §1

RPMI-8226 = details: Homo sapiens; for inhibition at 10 µM: RPMI-8226 (Leukemia), read-out: GI%; for GI50: RPMI-8226, Leukemia, five-dose
Procedure, shortened: as §1

M14 = details: Homo sapiens; for inhibition at 10 µM: M14 (Melanoma), read-out: GI%; for GI50: M14, Melanoma, five-dose
Procedure, shortened: as §1

OVCAR-3 = details: Homo sapiens; for inhibition at 10 µM: OVCAR-3 (Ovarian cancer), read-out: GI%; for GI50: OVCAR-3, Ovarian cancer, five-dose
Procedure, shortened: as §1

NCI-H23 = details: Homo sapiens; for inhibition at 10 µM: NCI-H23 (Non-small cell lung cancer), read-out: GI%; for GI50: NCI-H23, Non-small cell lung cancer, five-dose
Procedure, shortened: as §1

SR = details: Homo sapiens; for inhibition at 10 µM: SR (Leukemia), read-out: GI%; for GI50: SR, Leukemia, five-dose
Procedure, shortened: as §1

NCI-H226 = details: Homo sapiens; for inhibition at 10 µM: NCI-H226 (Non-small cell lung cancer), read-out: GI%; for GI50: NCI-H226, Non-small cell lung cancer, five-dose
Procedure, shortened: as §1

HOP-92 = details: Homo sapiens; HOP-92 (Non-small cell lung cancer), 10 µM; read-out: GI%
Procedure, shortened: as §1

SW-620 = details: Homo sapiens; for inhibition at 10 µM: SW-620 (Colon cancer), read-out: GI%; for GI50: SW-620, Colon cancer, five-dose
Procedure, shortened: as §1

MCF7 = details: Homo sapiens; for inhibition at 10 µM: MCF7 (Breast cancer), read-out: GI%; for GI50: MCF7, Breast cancer, five-dose
Procedure, shortened: as §1

SF-268 = details: Homo sapiens; for inhibition at 10 µM: SF-268 (CNS cancer), read-out: GI%; for GI50: SF-268, CNS cancer, five-dose
Procedure, shortened: as §1

SF-539 = details: Homo sapiens; for inhibition at 10 µM: SF-539 (CNS cancer), read-out: GI%; for GI50: SF-539, CNS cancer, five-dose
Procedure, shortened: as §1

U251 = details: Homo sapiens, U-251; for inhibition at 10 µM: U251 (CNS cancer), read-out: GI%; for GI50: U251, CNS cancer, five-dose
Procedure, shortened: as §1

EKVX = details: Homo sapiens; for inhibition at 10 µM: EKVX (Non-small cell lung cancer), read-out: GI%; for GI50: EKVX, Non-small cell lung cancer, five-dose
Procedure, shortened: as §1

UACC-62 = details: Homo sapiens; for inhibition at 10 µM: UACC-62 (Melanoma), read-out: GI%; for GI50: UACC-62, Melanoma, five-dose
Procedure, shortened: as §1

SN12C = details: Homo sapiens; SN12C, Renal cancer; five-dose
Procedure, shortened: as §1

HT29 = details: Homo sapiens, HT-29; for inhibition at 10 µM: HT29 (Colon cancer), read-out: GI%; for GI50: HT29, Colon cancer, five-dose
Procedure, shortened: as §1

COc1ccc(-c2nc3cc(C(=O)NN=Cc4cccc(OC)c4)ccc3[nH]2)cc1 [8j, N'-(3-Methoxybenzylidene)-2-(4-methoxyphenyl)-1H-benzo[d]imidazole-5-carbohydrazide]
inhibition at 10 µM (OVCAR-5): 91.2% | GI50 (OVCAR-5): 4.69 µM | inhibition at 10 µM (HOP-62): > 100% | GI50 (HOP-62): 2.7 µM | inhibition at 10 µM (HCC-2998): 88.5% | GI50 (HCC-2998): 3.52 µM | inhibition at 10 µM (PC-3): > 100% | inhibition at 10 µM (NCI-H522): 89.7% | GI50 (NCI-H522): 3.3 µM | inhibition at 10 µM (MOLT-4): 59.4% | GI50 (MOLT-4): 22.6 µM | inhibition at 10 µM (TK-10): > 100% | GI50 (TK-10): 12.6 µM | inhibition at 10 µM (SNB-19): > 100% | GI50 (SNB-19): 3.18 µM | inhibition at 10 µM (RPMI-8226): > 100% | GI50 (RPMI-8226): 4.14 µM | inhibition at 10 µM (M14): 70.4% | GI50 (M14): 3.42 µM | inhibition at 10 µM (OVCAR-3): > 100% | GI50 (OVCAR-3): 2.05 µM | inhibition at 10 µM (NCI-H23): > 100% | GI50 (NCI-H23): 2.95 µM | inhibition at 10 µM (SR): 92.7% | GI50 (SR): 10.6 µM | inhibition at 10 µM (NCI-H226): 98.3% | GI50 (NCI-H226): 2.13 µM | inhibition at 10 µM (HOP-92): > 100% | inhibition at 10 µM (SW-620): > 100% | GI50 (SW-620): 3.1 µM | inhibition at 10 µM (MCF7): > 100% | GI50 (MCF7): 2.5 µM | inhibition at 10 µM (SF-268): 84.7% | GI50 (SF-268): 3.28 µM | inhibition at 10 µM (SF-539): 34.1% | GI50 (SF-539): 11.5 µM | inhibition at 10 µM (U251): > 100% | GI50 (U251): 2.18 µM | inhibition at 10 µM (EKVX): > 100% | GI50 (EKVX): 2.76 µM | inhibition at 10 µM (UACC-62): 58.9% | GI50 (UACC-62): 6.5 µM | GI50 (SN12C): 2.78 µM | inhibition at 10 µM (HT29): > 100% | GI50 (HT29): 2.8 µM

COc1cccc(C=NNC(=O)c2ccc3[nH]c(-c4ccc(Cl)cc4)nc3c2)c1 [8q, 2-(4-Chlorophenyl)-N'-(3-methoxybenzylidene)-1H-benzo[d]imidazole-5-carbohydrazide]
inhibition at 10 µM (OVCAR-5): > 100% | GI50 (OVCAR-5): 5.35 µM | inhibition at 10 µM (HOP-62): > 100% | GI50 (HOP-62): 1.92 µM | inhibition at 10 µM (HCC-2998): 79.6% | GI50 (HCC-2998): 4.42 µM | inhibition at 10 µM (PC-3): > 100% | inhibition at 10 µM (NCI-H522): > 100% | GI50 (NCI-H522): 2.26 µM | inhibition at 10 µM (MOLT-4): 71.6% | GI50 (MOLT-4): 5.96 µM | inhibition at 10 µM (TK-10): > 100% | GI50 (TK-10): 23.9 µM | inhibition at 10 µM (SNB-19): > 100% | GI50 (SNB-19): 2.17 µM | inhibition at 10 µM (RPMI-8226): > 100% | GI50 (RPMI-8226): 1.47 µM | inhibition at 10 µM (M14): > 100% | GI50 (M14): 2.15 µM | inhibition at 10 µM (OVCAR-3): > 100% | GI50 (OVCAR-3): 3.24 µM | inhibition at 10 µM (NCI-H23): > 100% | GI50 (NCI-H23): 2.2 µM | inhibition at 10 µM (SR): > 100% | GI50 (SR): 4.15 µM | inhibition at 10 µM (NCI-H226): > 100% | GI50 (NCI-H226): 2.57 µM | inhibition at 10 µM (HOP-92): > 100% | inhibition at 10 µM (SW-620): > 100% | GI50 (SW-620): 2.93 µM | inhibition at 10 µM (MCF7): > 100% | GI50 (MCF7): 2.57 µM | inhibition at 10 µM (SF-268): > 100% | GI50 (SF-268): 2.18 µM | inhibition at 10 µM (SF-539): > 100% | GI50 (SF-539): 7.14 µM | inhibition at 10 µM (U251): > 100% | GI50 (U251): 2.03 µM | inhibition at 10 µM (EKVX): > 100% | GI50 (EKVX): 3.52 µM | inhibition at 10 µM (UACC-62): > 100% | GI50 (UACC-62): 4.92 µM | GI50 (SN12C): 2.22 µM | inhibition at 10 µM (HT29): > 100% | GI50 (HT29): 2.38 µM

— publication PMC10893631, “Receptor-based pharmacophore modeling, molecular docking, synthesis and biological evaluation of novel VEGFR-2, FGFR-1, and BRAF multi-kinase inhibitors” (BMC Chemistry, 2024)
